Source: US5833946A, “Dissemination of fungal infections: animal model and method of prophylaxis” (priority 1995, dated 1998)
Read-outs that look alike come from different tables or passages of the source. Non-standard residues stand in square brackets, D forms with d. Residues, ends and D or L forms follow the SMILES beside them. *: point of attachment. Sta = CC(C)C[C@H](N)[C@@H](O)CC(=O)O; Isovaleryl = CC(C)CC(=O)*

Legend:
[1] = system: C. albicans ATCC 32354; experiment: Growth of C. albicans in culture (A660nm); type: cell-based
Protocol: To study the effects of pepstatin A on growth of C. albicans, 0.1 ml of an overnight C. albicans culture was used to inoculate 10 ml cultures of either 1) YCB/BSA, or 2) a YD medium (0.2% yeast extract, 2% glucose) that contained 40 mM ammonium chloride. Pepstatin A was included in the cultures at final concentrations ranging between 0 and 10 μM (administered from a 50 μM aqueous stock). Growth of cultures at 30° C. was monitored by following A660nm. The growth of ATCC 32354 in YCB/BSA was inhibited about 90% by 2 μM pepstatin A (table II). This effect of pepstatin was fungistatic as resuspension of arrested cells in fermentation medium devoid of pepstatin A restored cell growth. […] Since ammonium chloride both removes dependence on, and suppresses the production of the secretory acid proteases, the mechanism of pepstatin inhibition action is likely to involve protease inhibition.

[2] = system: C. albicans ATCC 32354; experiment: Survival after lethal airway (intranasal) challenge in immunosuppressed mice; type: in vivo; conditions: for ED50: Candida albicans, ATCC32354, ip, i.p. daily days 0-4, neutropenic mice, intranasal challenge, read-out: EC50 (survival, airway challenge)
Source text: (§1) To examine the role of the protease under conditions in which the challenge dose of C. albicans first has to cross the airway epithelium before it can disseminate, the following procedure was developed. To both mimic the immunosuppressed patient state and increase susceptibility of the test animals to C. albicans, mice were rendered neutropenic by treatment with cyclophosphamide, and received concurrent ciprofloxacin treatment to block opportunistic infection by endogenous gram negative flora.
(§2) Challenge inoculum was prepared by streaking Candida albicans (ATCC 32354) onto Sabouraud dextrose agar from a frozen glycerol stock and incubating overnight at 37° C. Five hours before challenge, the culture was re-streaked onto four Sabouraud dextrose agar slants and incubated (4 h. 37° C.). The culture was then washed from the agar slants with sterile saline, resuspended in fresh saline to achieve an A660nm of 0.2, and kept on ice until used. Fifty μl of a 10^-4 dilution of this challenge stock was plated to determine retrospectively the exact challenge dose in c.f.u. Female Swiss Webster mice (Charles River Breeding Laboratories, Inc., Wilmington, Mass., approx. 23 g, ten mice per group) received 125 mgKg^-1 cyclophosphamide i.p. in 0.2 ml of saline on days -5 and -3, 0, 2 and 4 of the study. On day 0, mice were anesthetized with 80 mgKg^-1 sodium pentobarbital i.p. and challenged intranasally with either 2.5×10^5 c.f.u. in 50 μl of saline or 50 μl of saline only (toxicity controls). On each of days 1 to 4 mice also received 50 mgKg^-1 Ciprofloxacin (i.p. in WFI/5% (w/v) glucose) to prevent bacterial infection in the immunocompromised mice. On days 0 to 4, groups of mice (n=10) received one of the following daily treatments (0.1 ml i.p.): saline, amphotericin B (0.1 to 1.0 mgKg^-1); and pepstatin A (0.06 to 6.0 mgKg^-1). Pepstatin A was dissolved in DMSO at 13.8 mgml^-1 and diluted 1:10 in saline for the 6 mgKg^-1 dose. Lower doses were diluted in normal saline serially from the 6 mgKg^-1 dose. Stock amphotericin B (5 mg/ml in WFI) was diluted in WFI containing 5% glucose. Treatment with drug on day zero was performed three hours prior to airway challenge with C. albicans. Survival was monitored for fifteen days following challenge. Toxicity controls were weighed daily over the duration of treatment. Animals from parallel groups (n=10) of mice were sacrificed at various stages and used to determine organ burdens and histopathology. Organ burdens were determined in parallel in 3 mice from parallel groups that were sacrificed on days 2, 4, and 17. Mice were anesthetized with sodium pentobarbital (80 mgKg^-1), bled by cardiac puncture, and then given a lethal dose of sodium pentobarbital. The kidneys, spleen, liver, and lungs were removed, weighed, and homogenized in 10 ml sterile PBS. Each organ homogenate (including heart blood) was serially diluted, plated on Sabauroud dextrose agar and incubated overnight at 37° C. Resulting colonies were counted to derive c.f.u./gram wet weight of organ.

[3] = system: peak II secretory protease of C. albicans ATCC 32354; experiment: Dns-ISEVNLDAEFR-amide cleavage by mono-Q peak II protease (HPLC, fluorimetric); type: biochemical
Protocol: (§3) The proteases secreted by C. albicans ATCC 32354 also hydrolyzed the fluorescent peptide Dns-Ile-Ser-Glu-Val-Asn-Leu-Asp-Ala-Glu-Phe-Arg-amide (SEQ ID NO: 4), abbreviated Dns-ISEVNLDAEFR-amide. Aliquots of the protease-containing fractions recovered from mono-Q chromatography described in Example 1 (2 to 10 μl) were incubated with 30 μM final concentration of the fluorescent substrate Dns-ISEVNLDAEFR-amide at 37° C. in 60 μl 50 mM sodium citrate buffer of pH 4.4 for 15 minutes, after which reactions were terminated by addition of 50 μM pepstatin A in 33% v/v methanol to 10 μM final concentration, and set aside for HPLC analysis. […] Unconverted Dns-ISEVNLDAEFR-amide (RT=5.55 min) and fluorescent products eluting at 4.2 min (Dns-Ile-Ser-Glu-Val-Asn-Leu (SEQ ID NO: 5), and 3.0 min (unidentified), were resolved and detected fluorimetrically.
(§4) The secretory aspartic proteases produced by other pathogenic C. albicans strains and Candida sp. are inhibitable by pepstatin A and are therefore of the aspartyl class. To determine if the peak I, II, or III protease activities secreted by ATCC 32354 were also of the aspartyl class, their susceptibility to inhibition by pepstatin A was determined. […]

[4] = system: C. albicans ATCC 32354; experiment: Mortality after intravenous challenge; type: in vivo, mice
Protocol: Female Swiss Webster mice (n=10 per treatment group) were challenged by tail vein injection with 10^6 c.f.u. Candida albicans ATCC 32354 in 0.2 ml saline and mortality was monitored over the following 14 days. Three hr prior to challenge with candida, and on days 1 to 5 post challenge with candida, mice also received one of the following compounds (i.p. in saline): saline alone; 0.6 mgKg^-1 pepstatin A, or 1 mgKg^-1 amphotericin B. Challenge inoculum containing C. albicans was prepared in the same manner as used for airway challenge experiments except that it was adjusted to a final A660nm of 2.0.

[5] = system: C. albicans; experiment: Control experiments with ciprofloxacin alone (data not shown); conditions: ciprofloxacin by itself
Source text: as §1

[6] = system: C. albicans ATCC 32354; experiment: Organ burdens (c.f.u.) after intranasal challenge in immunosuppressed mice; type: in vivo; set-up: C. albicans, kidney / C. albicans, lungs: scale not given here
Protocol: as §2

[7] = system: C. albicans ATCC 32354; experiment: Formation of hyphae in culture (Gram stain, microscopy); type: cell-based; conditions: YCB/BSA, 48 hours, 2 μM and above
Protocol: Aliquots of cultures were removed after 48 hours, heat fixed on slides, and Gram stained (VWR Scientific, Inc., Boston, Mass.).

[8] = system: C. albicans; conditions: administered prior to i.v. challenge with C. albicans; cited from earlier work
[9] = system: C. albicans ATCC 32354; experiment: Histopathology of lung sections after airway challenge; type: in vivo, mice; conditions: 0.06 and 0.6 mg/Kg^-1
Protocol: For histopathology, mice from above described groups (two mice per group) were sacrificed on days 2 and 4 by administration of a lethal dose of sodium pentobarbitol. The lungs, liver, kidneys, and spleen were removed intact, embedded in paraffin, sectioned (5 μm), and stained with ammoniacal silver to visualize the Candida. Slides were stained by immersing in 4% periodic acid for 5 minutes, rinsing in distilled water five times, then immersing in a solution of ammoniacal silver (0.1% silver nitrate, 0.02% lithium hydroxide monohydrate) that had been heated by microwave (420 W for 1 min). Slides were microwaved in this solution for one minute then allowed to remain in the hot solution for one more minute before rinsing four times in distilled water and toning in 0.2% gold chloride for thirty seconds. Slides were then rinsed twice in distilled water, placed in 2% sodium thiosulfate for thirty seconds, then rinsed three times and dehydrated through graded alcohols. Finally, slides were cleared in 3-4 changes of xylene and mounted with Permount.

[10] = system: peak I secretory protease of C. albicans ATCC 32354; experiment: Dns-ISEVNLDAEFR-amide cleavage by mono-Q peak I protease (HPLC, fluorimetric); type: biochemical; conditions: peak I enzyme
Protocol: as §3, §4

[11] = system: peak III secretory protease of C. albicans ATCC 32354; experiment: Dns-ISEVNLDAEFR-amide cleavage by mono-Q peak III protease (HPLC, fluorimetric); type: biochemical; conditions: peak III enzyme, read-out: I.C.50 Pepstatin
Protocol: as §3, §4

[12] = 0.6 mg Kg^-1, 4 days post challenge

## 1{92S,4S,5S)-5-[(2S)-3-(tert-Butylsulphonyl)-2-(1-naphthylmethyl)propanoyl]-(2R)N-(tert-butoxycarbonyl)-2-amino-2-[2-(1,3-dithiolan-2-yl)]ethanoyl]amino-6-cyclohexyl-4-hydroxy-2-(1-methyl)ethyl-hexanoyl}-s-isoleucinyl-2-yridylamide [compound X]
[1]; YCB/BSA
  effect on growth of C. albicans in YCB/BSA: blocked growth
[1]; YCB/BSA, 168 hours in culture, 10 μM (no compound 3.13)
  A660 nm: 0.26
[2]; 0.1 mgKg^-1
  protection against lethal airway challenge: Complete protection
[3]; peak II protease, read-out: I.C.50, in vitro activity of the peak II protease
  IC50: 110 nM

## C[C@@H]1[C@H](O)[C@@H](C)/C=C/C=C/C=C/C=C/C=C/C=C/C=C/[C@H](O[C@@H]2O[C@H](C)[C@@H](O)[C@H](N)[C@@H]2O)C[C@@H]2O[C@](O)(C[C@@H](O)C[C@@H](O)[C@H](O)CC[C@@H](O)C[C@@H](O)CC(=O)O[C@H]1C)C[C@H](O)[C@H]2C(=O)O [amphotericin B]
[2]; 1 mgKg^-1 i.p. daily days 0-4, first dose 3 h before challenge
  protection against lethal airway challenge: complete protection
[2]
  ED50: ~0.1 mg/kg
[4]; 1 mgKg^-1 i.p., 3 hr prior and days 1 to 5
  survival rate after 14 days, i.v. challenge: 70%

## O=C(O)c1cn(C2CC2)c2cc(N3CCNCC3)c(F)cc2c1=O [ciprofloxacin]
[5]
  effect on C. albicans in vitro or in vivo: no effect

## CC(C)CC(=O)N[C@H](C(=O)N[C@H](C(=O)N[C@@H](CC(C)C)[C@@H](O)CC(=O)N[C@@H](C)C(=O)N[C@@H](CC(C)C)[C@@H](O)CC(=O)O)C(C)C)C(C)C [pepstatin A] (Isovaleryl-VV[Sta]A[Sta]-OH)
[1]; Candida albicans, ATCC32354, YCB/BSA, 2 μM
  inhibition at 2 µM: ~90%
[1]; YCB/BSA
  nature of growth effect (resuspension without inhibitor restored growth): fungistatic
[1]; YCB/BSA, 145 hours in culture, 2.0 μM (control 1.97)
  A660 nm: 0.18
[1]; YCB/BSA, 145 hours in culture, 10.0 μM (control 1.97)
  A660 nm: 0.17
[1]; YD + 40 mM ammonium chloride, up to 10 μM
  inhibitory effect on growth in YD containing ammonium chloride: no significant inhibitory effects
[1]; YD + NH4Cl, 145 hours in culture, 2.0 μM (control 2.97)
  A660 nm: 2.99
[1]; YD + NH4Cl, 145 hours in culture, 10.0 μM (control 2.97)
  A660 nm: 3.20
[6]; 0.06 mg Kg^-1, 4 days post challenge (0 dose 39 ± 18.4)
  C. albicans, kidney: 0.67 ± 0.15 c. f. u. g^-1 homogenized tiss
[6]; 0.06 mg Kg^-1, 4 days post challenge (0 dose 4,540 ± 2,160)
  C. albicans, lungs: 0.58 ± 0.39 c. f. u. g^-1 homogenized tiss
[6]; [12]
  C. albicans, kidney: 0.49 ± 0.22 c. f. u. g^-1 homogenized tiss
  C. albicans, lungs: 0.13 ± 0.19 c. f. u. g^-1 homogenized tiss
[6]; all doses
  c.f.u. recovered from the kidneys: a small number of c.f.u.'s were recovered
[6]; intranasal challenge
  c.f.u. remaining in the lung tissue: dramatically reduced
  dissemination to the spleen and liver: completely blocked dissemination
[7]
  formation of hyphae in cultures: inhibited the formation of hyphae
[8]
  reduced mortality in a statistically significant fashion (neither/nor = did not): neither
[9]
  growth of C. albicans and hyphae formation in the lungs (histopathology): inhibited both the growth of C. albicans and hyphae formation
[2]; 0.6 mgKg^-1 i.p. daily days 0-4, airway challenge
  survival: 100%
[2]
  ED50: ~0.06 mg/kg
[2]; airway challenge, dose-dependent, 0.06 to 0.6 mgKg^-1
  protective effect upon pretreating mice: strong protective effect
[10]; product eluting at 3.0 min, 15 min pre-incubation, 1 hr reaction, pH 4.4, read-out: I.C.50 Pepstatin
  IC50: 9 nM
[10]; product eluting at 4.2 min, N. I. = no inhibition
  I.C.50 Pepstatin: N. I.
[11]; product eluting at 3.0 min
  IC50: 29 nM
[11]; product eluting at 4.2 min
  IC50: 36 nM
[4]; 0.6 mgKg^-1 i.p.
  survival time post i.v. challenge: did not survive past day two
[4]; 0.6 mgKg^-1 i.p., 3 hr prior and days 1 to 5
  protective effect, classical i.v. challenge protocol: no protective effect
[3]; peak II enzyme, product eluting at 4.2 min, read-out: I.C.50 Pepstatin
  IC50: 28 nM
